Measured values reported in patent US11820870B2, “Photocontrolled dynamic covalent linkers for polymer networks” (Northwestern University, priority 2018, dated 2023).

Tests used:
[1] = Pseudo-first-order reversible esterification with pinacol (LCMS kinetics); format: physicochemical
Description: A small-molecule model compound, azobenzene 1, was first designed, in which the boronic acid was positioned ortho to the azo group (FIG. 5). Irradiation of (E)-1 with 365-nm light provided a 88:12 mixture of Z and E isomers. This mixture was subjected to excess pinacol in acetonitrile-water (1:1 v/v, 25° C.) to determine the apparent rates and equilibrium constants of boronic acid (1) esterification and boronic ester (2) hydrolysis for each isomer. While other 1,2- and 1,3-diols were hydrolyzed too quickly to be studied, the unusually slow rate of pinacol hydrolysis allowed the E and Z isomers to be resolved and their reaction kinetics to be monitored by high-performance liquid chromatography (HPLC; see Supporting Information (SI) for details).
After 8 hours, the reactions had reached equilibrium, with 39% conversion of (Z)-1 to (Z)-2 and only 9% conversion of (E)-1 to (E)-2 (FIG. 6A). Using a reversible pseudo-first-order kinetic model, it was determined that the esterification of (Z)-1 was 2.1 times faster than the esterification of (E)-1 (k1) (FIG. 6B, Table 1). The rates of hydrolysis could also be extracted from this model: (E)-2 underwent hydrolysis 2.0 times faster than (Z)-2 did (k−1). These apparent rate constants for hydrolysis were verified by hydrolyzing a mixture of (E)-2 and (Z)-2 under irreversible pseudo-first-order conditions (FIGS. 6C and 6D). Taken together, the apparent equilibrium to form boronic ester from boronic acid and pinacol is 4.3 times more favorable for the Z isomer relative to the E isomer. While convenient for small-molecule kinetic studies, the rate of pinacol ester formation is too slow to be practical for gelation. Thus, a less sterically hindered diol was used for hydrogel studies.
Stock solutions of (E)-1 or (E)-2 were prepared in acetonitrile at 800 μM. Serial dilutions were performed to obtain a final concentration of 12.5 μM. The solutions were directly injected onto the LCMS (Poroshell 120 column, EC-C18, 2.7 μm, 2.1×50 mm). Runs were ten minutes long with solvent gradient from 50:50 to 100:0 ACN:H2O in the first three minutes. Detection was performed at 254 nm with a variable-wavelength detector. The peak area for each concentration was recorded. A calibration curve was created. […] The concentration of the Z-isomer can be calculated from the known concentration of the E-isomer (based on the previously-generated calibration curve).
500 μL of a stock solution of 800 μM of (E)-1 was diluted with 500 μL of 80 mM of pinacol in DI water. The concentrations of (E)-1 and (E)-2 were monitored as a function of time using the above LCMS method. The observed rate constants of esterification (k1(E)) and hydrolysis (k−1(E)) were determined using the derivation shown below.
The data from the concentrations vs. time experiments was fit to the linear expression (1) for a reversible first order reaction and yields the slope denoted as equation (4). […] With the apparent equilibrium constant and slope known, the rates of hydrolysis can be determined with equation (5), and subsequently the rate of esterification can be determined.
500 μL of a stock solution of 800 μM of (E)-1 was irradiated with a 365 nm flashlight for 10 minutes to produce a mixture of (E)-1 and (Z)-1. The mixture was then diluted with 500 μL of a 80 mM pinacol solution in DI water, and the concentrations of (E)-2 and (Z)-2 were monitored as a function of time using the above LCMS method. […]

[2] = Pseudo-first-order irreversible hydrolysis of boronic ester (LCMS kinetics); format: physicochemical; details: obtained from the irreversible hydrolysis experiments; 1:1 ACN:H2O; average of three experiments
Description: After 8 hours, the reactions had reached equilibrium, with 39% conversion of (Z)-1 to (Z)-2 and only 9% conversion of (E)-1 to (E)-2 (FIG. 6A). Using a reversible pseudo-first-order kinetic model, it was determined that the esterification of (Z)-1 was 2.1 times faster than the esterification of (E)-1 (k1) (FIG. 6B, Table 1). The rates of hydrolysis could also be extracted from this model: (E)-2 underwent hydrolysis 2.0 times faster than (Z)-2 did (k−1). These apparent rate constants for hydrolysis were verified by hydrolyzing a mixture of (E)-2 and (Z)-2 under irreversible pseudo-first-order conditions (FIGS. 6C and 6D). […]
Stock solutions of (E)-1 or (E)-2 were prepared in acetonitrile at 800 μM. […] The peak area for each concentration was recorded. […] The concentration of the Z-isomer can be calculated from the known concentration of the E-isomer (based on the previously-generated calibration curve).
500 μL of a stock solution of 800 μM of (E)-2 was irradiated with a 365 nm flashlight for 10 minutes to produce a mixture of (E)-2 and (Z)-2. The mixture was then diluted with 500 μL of DI H2O and the concentration of (E)-2 and (Z)-2 was monitored as a function of time. The observed rate constants of hydrolysis k−1(E) and k−1(Z) were determined using the derivation shown below. […]

[3] = reversible esterification, 400 μM with 40 mM pinacol, 1:1 ACN:H2O, 25° C., average of three experiments

conversion of boronic acid to boronic ester at equilibrium ([1]; after 8 hours, excess pinacol, acetonitrile-water 1:1 v/v, 25° C.) | Keq [a] apparent equilibrium constant [1, 3] | Structure (SMILES) | k1 [a] apparent rate constant of esterification [1, 3] | k−1 [b] apparent rate constant of hydrolysis [2] | k−1 [a] apparent rate constant of hydrolysis ([1]; obtained from the reversible esterification experiment, 1:1 ACN:H2O, average of three experiments) | hydrolysis rate (k−1), times faster than (Z)-2 ([1]; ratio E isomer to Z isomer)
9% | 0.090 ± 0.016 | COC(=O)c1ccc(/N=N/c2ccccc2B(O)O)cc1 [(E)-1, (E)-(2-((4-(methoxycarbonyl)phenyl)diazinyl)phenyl)boronic acid] | 2.56 ± 0.28 × 10^−5 s^−1 |  |  | 
 |  | COC(=O)c1ccc(/N=N/c2ccccc2B2OC(C)(C)C(C)(C)O2)cc1 [(E)-2, Methyl (E)-4-((2-(4,4,5,5-tetramethyl-1,3,2,-dioxaborolan-2-yl)phenyl)diazinyl)benzoate] |  | 2.83 ± 0.06 × 10^−4 s^−1 | 2.76 ± 0.32 × 10^−4 s^−1 | 2.0 times
